Results reported in patent publication US20080194585A1, “Fungicidal Pyrazine Derivatives” (priority 2005, published 2008).
Marks after values point to notes of the source that are not given here.

What was measured:
Conditions in all cases: 100 = 100% disease control, 0 = no control
[1] = test system: Plasmopara viticola; assay: Test D: grape downy mildew, spray after inoculation of grape seedlings; type: in vivo
From the text: Upon removal, disease ratings were made. […] A dash (-) indicates no test results.

[2] = test system: Phytophthora infestans; assay: whole plant or invertebrate; type: in vivo
[3] = test system: Septoria tritici; assay: Test J: wheat leaf blotch, preventive spray on wheat seedlings; type: in vivo
From the text: A dash (-) indicates no test results.

[4] = test system: fusarium graminearium; assay: Test I: wheat head scab, preventive spray on wheat seedlings
Experimental: (the causal agent of wheat head scab) and incubated in a saturated atmosphere at 20° C. for 72 h, and then moved to a growth chamber at 22° C. for 5 days, after which disease ratings were made.

[5] = test system: Puccinia recondita f. sp. tritici; assay: Test K: wheat leaf rust, preventive spray on wheat seedlings
[6] = test system: Botrytis cinerea; assay: Test E: tomato botrytis, preventive spray on tomato seedlings
[7] = test system: Septoria nodorum; assay: Test H: wheat glum blotch, preventive spray on wheat seedlings
Experimental: (the causal agent of wheat glum blotch) and incubated in a saturated atmosphere at 20° C. for 48 h, and then moved to a growth chamber at 22° C. for 5 days, after which disease ratings were made.

[8] = test system: Erysiphe graminis f. sp. tritici; assay: Test L: wheat powdery mildew, preventive spray on wheat seedlings
[9] = test system: Sclerotinia sclerotiorum; assay: Test C: cucumber white mold, preventive spray on cucumber seedlings
[10] = test system: Pythium aphanidermatum; assay: Test A: bluegrass pythium blight, preventive spray on bluegrass seedlings
[11] = test system: Rhizoctonia oryzae; assay: Test G: turf brown patch, preventive spray on creeping bent grass seedlings
Experimental: (the causal agent of turf brown patch) and incubated in a saturated atmosphere at 27° C. for 24 h, and then moved to a growth chamber at 27° C. for 5 days, after which disease ratings were made.

[12] = test system: Colletotrichum orbiculare; assay: Test B: cucumber Colletotrichum anthracnose, preventive spray on cucumber seedlings

SMILES | Test D disease control rating ([1]; 40 ppm (marked *)) | Test F disease control rating ([2]; 40 ppm (marked *)) | Test J disease control rating ([3]; 40 ppm (marked *)) | Test I disease control rating ([4]; 40 ppm (marked *)) | Test K disease control rating ([5]; 40 ppm (marked *)) | Test E disease control rating ([6]; 40 ppm (marked *)) | Test H disease control rating ([7]; 40 ppm (marked *)) | Test L disease control rating ([8]; 40 ppm (marked *)) | Test C disease control rating ([9]; 40 ppm (marked *)) | Test A disease control rating ([10]; 40 ppm (marked *)) | Test G disease control rating ([11]; 40 ppm (marked *)) | Test B disease control rating ([12]; 40 ppm (marked *)) | further results
Cc1ccn(-c2nc(Cl)c(-c3cccc4c3OCO4)n(CC(C)C)c2=O)n1 [compound 255] | – | – | – | – | – | – | – | – | – | – | – | – | Test D disease control rating ([1]; 200 ppm): 0%; Test F disease control rating ([2]; 200 ppm): 0%; Test J disease control rating ([3]; 200 ppm): 71%; Test I disease control rating ([4]; 200 ppm): 0%; Test K disease control rating ([5]; 200 ppm): 61%; Test E disease control rating ([6]; 200 ppm): 99%; Test H disease control rating ([7]; 200 ppm): 0%; Test L disease control rating ([8]; 200 ppm): 0%; Test C disease control rating ([9]; 200 ppm): 0%; Test A disease control rating ([10]; 200 ppm): 0%; Test G disease control rating ([11]; 200 ppm): 0%; Test B disease control rating ([12]; 200 ppm): 0%
Cc1ccn(-c2nc(Cl)c(-c3ccc4c(c3)OC(F)(F)O4)n(CC(C)C)c2=O)n1 [compound 256] | – | – | – | – | – | – | – | – | – | – | – | – | Test D disease control rating ([1]; 200 ppm): 0%; Test F disease control rating ([2]; 200 ppm): 0%; Test J disease control rating ([3]; 200 ppm): 38%; Test I disease control rating ([4]; 200 ppm): 0%; Test K disease control rating ([5]; 200 ppm): 0%; Test E disease control rating ([6]; 200 ppm): 0%; Test H disease control rating ([7]; 200 ppm): 0%; Test L disease control rating ([8]; 200 ppm): 0%; Test C disease control rating ([9]; 200 ppm): 0%; Test A disease control rating ([10]; 200 ppm): 0%; Test G disease control rating ([11]; 200 ppm): 0%; Test B disease control rating ([12]; 200 ppm): 0%
Cc1ccn(-c2nc(Cl)c(-c3cc4c(cc3Cl)OCO4)n(CC(C)C)c2=O)n1 [compound 257] | – | – | – | – | – | – | – | – | – | – | – | – | Test D disease control rating ([1]; 200 ppm): 0%; Test F disease control rating ([2]; 200 ppm): 0%; Test J disease control rating ([3]; 200 ppm): 71%; Test I disease control rating ([4]; 200 ppm): 0%; Test K disease control rating ([5]; 200 ppm): 74%; Test E disease control rating ([6]; 200 ppm): 99%; Test H disease control rating ([7]; 200 ppm): 0%; Test L disease control rating ([8]; 200 ppm): 0%; Test C disease control rating ([9]; 200 ppm): 0%; Test A disease control rating ([10]; 200 ppm): 81%; Test G disease control rating ([11]; 200 ppm): 0%; Test B disease control rating ([12]; 200 ppm): 0%
Cc1cc(C)c(-c2c(Cl)nc(-n3ccc(C)n3)c(=O)n2CC(C)C)c(C)c1 [compound 258] | 0* % | 0* % | 82* % | 0* % | 41* % | 59* % | 0* % | 0* % | 49* % | 0* % | 0* % | 0* % | –
CCCCn1c(-c2ccc(F)cc2Cl)c(Cl)nc(-n2ccc(C)n2)c1=O [compound 265] | 0* % | 0* % | 100* % | 0* % | 94* % | 100* % | 95* % | 91* % | 0* % | 0* % | 50* % | 90* % | –
CCCCn1c(-c2ccc(F)cc2Cl)c(Cl)nc(-n2cccn2)c1=O [compound 266] | 0* % | 0* % | 100* % | 0* % | 99* % | 100* % | 99* % | 99* % | 0* % | 0* % | 90* % | 99* % | –
CCCCn1c(-c2ccc(F)cc2Cl)c(Cl)nc(N2CCC=N2)c1=O [compound 267] | 0* % | 0* % | 60* % | 0* % | 68* % | 100* % | 0* % | 0* % | 0* % | 0* % | 0* % | 0* % | –
O=c1c(-n2cccn2)nc(Cl)c(-c2c(F)cccc2F)n1CCO [compound 268] | 0* % | 0* % | 7* % | 0* % | 82* % | 0* % | 0* % | 0* % | 0* % | 0* % | 0* % | 0* % | –
O=c1c(-n2cccn2)nc(Cl)c(-c2c(F)cccc2F)n1CCF [compound 269] | 0* % | 0* % | 99* % | 0* % | 91* % | 0* % | 100* % | 0* % | 0* % | 0* % | 0* % | 0* % | –
O=c1c(-n2cccn2)nc(Cl)c(-c2c(F)cccc2F)n1CCBr [compound 270] | 24* % | 0* % | 95* % | 0* % | 94* % | 85* % | 0* % | 0* % | 0* % | 0* % | 0* % | 0* % | –
O=c1c(-n2cccn2)nc(Cl)c(-c2c(F)cccc2F)n1Cc1ccc(F)cc1 [compound 272] | 57* % | 0* % | 100* % | 0* % | 100* % | 100* % | 99* % | 100* % | 44* % | 0* % | 59* % | 95* % | –
O=c1c(-n2cncn2)nc(Cl)c(-c2c(F)cccc2F)n1Cc1ccc(F)cc1 [compound 273] | 0* % | 0* % | 92* % | 0* % | 86* % | 99* % | 0* % | 0* % | 0* % | 0* % | 0* % | 0* % | –
N#Cc1nc(Cl)c(-c2c(F)cccc2F)n(Cc2ccc(F)cc2)c1=O [compound 274] | 0* % | 0* % | 45* % | 0* % | 91* % | 0* % | 0* % | 71* % | 0* % | 0* % | 0* % | 0* % | –
